Test results reported in patent US20240335444A1, “MODULATORS OF BCL6 PROTEOLYSIS AND ASSOCIATED METHODS OF USE” (Arvinas Operations, Inc., priority 2023, published 2024).

System: OCI-Ly1
Test: Tumor growth of DLBCL cell line derived xenograft model OCI-Ly1
Assay type: in vivo, mice
Conditions: BCL6 sensitive tumor xenograft model (OCI-Ly1), 10 mg/kg BID
Method: Mice bearing subcutaneous tumors were orally (po) administered vehicle or Compound A at 1, 3, 10, or 30 mg/kg daily for 22 days (qd×22). Dosing began with tumors at an average of 140 mm^3. […] Statistical analyses were performed using 2-way ANOVA: p<0.0001 (****). Error bars represent standard error of the mean (±SEM).
Mice bearing subcutaneous tumors were orally (po) administered vehicle or Compound A at 1, 3, or 10 mg/kg bi-daily for 23 days (bid×23). Dosing began with tumors at an average of 170 mm^3. […] FIG. 7C depicts tumor lysate BCL6 protein levels 16-hours post-last dose analyzed by western blotting. Individual tumor BCL6 levels are shown in a scatter plot, mean is represented by the bar, determined by densitometry, normalized to GAPDH loading controls, and shown as a percentage of vehicle. Percent BCL6 degradation (%) relative to vehicle is shown above each arm. Statistical analyses were performed using 2-way ANOVA: p<0.0001 (****). Error bars represent standard error of the mean (±SEM).

Structure (SMILES)	Ly-1 TGI @ 10 mg/kg (BID) [%]
CNC(=O)COc1cc2cc(Nc3nc(N4CCC(O[C@H]5C[C@H](N6CCN(c7ccc8c(c7)CN([C@H]7CCC(=O)NC7=O)C8=O)C(C)(C)C6)C5)CC4)ncc3Cl)ccc2n(C(C)C)c1=O [Compound 211, 2-({6-[(5-chloro-2-{4-[(1r,3r)-3-(4-{2-[(3S)-2,6-dioxopiperidin-3-yl]-1-oxo-2,3-dihydro-1H-isoindol-5-yl}-3,3-dimethylpiperazin-1-yl)cyclobutoxy]piperidin-1-yl}pyrimidin-4-yl)amino]-2-oxo-1-(proapn-2-yl)-1,2-dihydroquinolin-3-yl}oxy)-N-methylacetamide]	87
CNC(=O)COc1cc2cc(Nc3nc(N4CCC(O[C@H]5C[C@H](N6CC[C@@H](c7ccc8c(c7F)CN([C@H]7CCC(=O)NC7=O)C8=O)C(C)(C)C6)C5)CC4)ncc3Cl)ccc2n(C(C)C)c1=O [Compound 209, 2-({6-[(5-chloro-2-{4-[(1r,3r)-3-[(4R)-4-{2-[(3S)-2,6-dioxopiperidin-3-yl]-4-fluoro-1-oxo-2,3-dihydro-1H-isoindol-5-yl}-3,3-dimethylpiperidin-1-yl]cyclobutoxy]piperiidn-1-yl}pyrimidin-4-yl)amino]-2-oxo-1-(propan-2-yl)-1,2-dihydroquinolin-3-yl}oxy)-N-methylacetamide]	104
CNC(=O)COc1cc2cc(Nc3nc(N4CCC(O[C@H]5C[C@H](N6CCC(c7cc(C)c8c(c7F)CN(C7CCC(=O)NC7=O)C8=O)CC6)C5)CC4)ncc3Cl)ccc2n(C(C)C)c1=O (some centres unmarked) [Compound 208, 2-({6-[(5-chloro-2-{4-[(1r,3r)-3-{4-[2-(2,6-dioxopiperidin-3-yl)-4-fluoro-7-methyl-1-oxo-2,3-dihydro-1H-isoindol-5-yl]piperidin-1-yl}cyclobutoxy]piperidin-1-yl}pyrimidin-4-yl)amino]-2-oxo-1-(propan-2-yl)-1,2-dihydroquinolin-3-yl}oxy)-N-methylacetamide]	77
CNC(=O)COc1cc2cc(Nc3nc(N4CCC(O[C@H]5C[C@H](N6CCC(c7ccc8c(c7Cl)CN(C7CCC(=O)NC7=O)C8=O)CC6)C5)CC4)ncc3Cl)ccc2n(C(C)C)c1=O (some centres unmarked) [Compound 163, 2-({6-[(5-chloro-2-{4-[(1r,3r)-3-{4-[4-chloro-2-(2,6-dioxopiperidin-3-yl)-1-oxo-2,3-dihydro-1H-isoindol-5-yl]piperidin-1-yl}cyclobutoxy]piperidin-1-yl}pyrimidin-4-yl)amino]-2-oxo-1-(propan-2-yl)-1,2-dihydroquinolin-3-yl}oxy)-N-methylacetamide]	95
CNC(=O)COc1cc2cc(Nc3nc(N4CCC(O[C@H]5C[C@H](N6CCC(c7ccc8c(c7F)CN(C7CCC(=O)NC7=O)C8=O)CC6)C5)CC4)ncc3Cl)ccc2n(C(C)C)c1=O (some centres unmarked) [Compound 81, 2-({6-[(5-chloro-2-{4-[(1r,3r)-3-{4-[2-(2,6-dioxopiperidin-3-yl)-4-fluoro-1-oxo-2,3-dihydro-1H-isoindol-5-yl]piperidin-1-yl}cyclobutoxy]piperidin-1-yl}pyrimidin-4-yl)amino]-2-oxo-1-(propan-2-yl)-1,2-dihydroquinolin-3-yl}oxy)-N-methylacetamide]	100
